Measurements as given in US20240317739A1, “NOVEL UREA DERIVATIVE COMPOUND AS RON INHIBITOR” (LG CHEM, LTD., priority 2021, published 2024).

Columns and labels:
cMET = cMET (Homo sapiens, UniProt P08581); assay: Evaluation of inhibitory activity against MET (TR-FRET); assay type: biochemical; details: TR-FRET kinase assay, cMET protein
Protocol: In addition, in order to measure the enzyme activity inhibition for cMET, the evaluation was performed in the same manner as the enzyme activity inhibition measurement experiment for the RON.
(§1) Specifically, the compound was prepared to a concentration of 1 mM with 100% DMSO and was diluted 10 times in a stepwise manner through 3-fold dilution. 2 ul of the compound diluted in a stepwise manner was added to a 96-well-plate containing 48 ul of a 1× kinase reaction buffer (50 mM HEPES (pH 7.4), 0.05% BSA, 0.005% Tween-20, 1 mM DTT, 0.5 mM MnCl2, 20 mM MgCl2).
The cMET protein was diluted to a concentration of 263 nM with a cMET storage buffer (50 mM Tris-HCl (pH 7.5), 150 mM NaCl, 0.05% Brij35, 1 mM DTT, 10% Glycerol), and then diluted again to a concentration of 2 nM with a 1× kinase reaction buffer. As a substrate cocktail, a MET-specific substrate mixture (5 uM TK peptide, […]) at a concentration 2 times the final reaction concentration.
(§2) Thereafter, a 384-well-plate was prepared, and 2.5 μl of each of the diluted compounds of Examples was added to a corresponding well of experimental group wells, and 2.5 μl of a 4% DMSO solution was dispensed into high control wells and low control wells.
(§3) Thereafter, 2.5 μL of 2 nM cMET was dispensed into the high control wells and the experimental group wells, and 2.5 μL of a 1× kinase reaction buffer was added to the low control wells, and the RON and the reaction buffer were centrifuged at room temperature for 40 seconds at 1000 RPM, and then incubated at room temperature for 20 to 30 minutes. Then, 5 uL of a substrate cocktail (2×) was dispensed into all wells, centrifuged at room temperature for 40 seconds at 1000 RPM, and then incubated at room temperature for 60 minutes. Thereafter, 5 uL of 90 mM EDTA was added to all wells to terminate the reaction, and then incubated again at room temperature for 5 minutes. Thereafter, 5 uL of a 4× phosphotyrosine antibody (Perkin Elmer) containing europium was added to all wells, and then incubated at room temperature for 60 minutes. After the incubation, the 384-well-plate was read with a Vison plate reader. At this time, the excitation wavelength was 340 nm, and the emission wavelength was 620 nm and 665 nm. The 1050 value of the compound of each Example was derived using the GraphPd Prism7 program.

RON = RON (Homo sapiens, UniProt Q04912); assay: Evaluation of inhibitory activity against RON (TR-FRET); assay type: biochemical; details: TR-FRET kinase assay, RON protein
Protocol: In order to measure the inhibitory activity of each of the compounds of Examples against RON, the IC50 of each of the compounds was measured using a Time-Resolved Fluorescence Energy Transfer Chemistry (TR-FRET).
as §1, with “a 1×kinase” for “a 1× kinase”, “7.4), 0.01%” for “7.4), 0.05% BSA, 0.005%”, “Tween-20, 5” for “Tween-20, 1”, “mM Na3VO4, 2 mM EGTA, 10” for “mM MnCl2, 20”
The RON protein was diluted to a concentration of 49.3 nM with an RON storage buffer (50 mM Tris-HCl (pH 7.5), 150 mM NaCl, 0.5 mM EDTA, 0.02% Triton X-100), and then diluted again to a concentration of 0.4 nM with a 1×kinase reaction buffer. As a substrate cocktail, a RON-specific substrate mixture (40 uM ULight-labeled Poly GT, 100 nM ATP) at a concentration 2 times the final reaction concentration.
as §2
as §3, with “of 0.4” for “of 2”, “nM RON” for “nM cMET”, “of 30” for “of 90”, “The IC50” for “The 1050”

Sequence of RON (Q04912 25-1400, species assumed): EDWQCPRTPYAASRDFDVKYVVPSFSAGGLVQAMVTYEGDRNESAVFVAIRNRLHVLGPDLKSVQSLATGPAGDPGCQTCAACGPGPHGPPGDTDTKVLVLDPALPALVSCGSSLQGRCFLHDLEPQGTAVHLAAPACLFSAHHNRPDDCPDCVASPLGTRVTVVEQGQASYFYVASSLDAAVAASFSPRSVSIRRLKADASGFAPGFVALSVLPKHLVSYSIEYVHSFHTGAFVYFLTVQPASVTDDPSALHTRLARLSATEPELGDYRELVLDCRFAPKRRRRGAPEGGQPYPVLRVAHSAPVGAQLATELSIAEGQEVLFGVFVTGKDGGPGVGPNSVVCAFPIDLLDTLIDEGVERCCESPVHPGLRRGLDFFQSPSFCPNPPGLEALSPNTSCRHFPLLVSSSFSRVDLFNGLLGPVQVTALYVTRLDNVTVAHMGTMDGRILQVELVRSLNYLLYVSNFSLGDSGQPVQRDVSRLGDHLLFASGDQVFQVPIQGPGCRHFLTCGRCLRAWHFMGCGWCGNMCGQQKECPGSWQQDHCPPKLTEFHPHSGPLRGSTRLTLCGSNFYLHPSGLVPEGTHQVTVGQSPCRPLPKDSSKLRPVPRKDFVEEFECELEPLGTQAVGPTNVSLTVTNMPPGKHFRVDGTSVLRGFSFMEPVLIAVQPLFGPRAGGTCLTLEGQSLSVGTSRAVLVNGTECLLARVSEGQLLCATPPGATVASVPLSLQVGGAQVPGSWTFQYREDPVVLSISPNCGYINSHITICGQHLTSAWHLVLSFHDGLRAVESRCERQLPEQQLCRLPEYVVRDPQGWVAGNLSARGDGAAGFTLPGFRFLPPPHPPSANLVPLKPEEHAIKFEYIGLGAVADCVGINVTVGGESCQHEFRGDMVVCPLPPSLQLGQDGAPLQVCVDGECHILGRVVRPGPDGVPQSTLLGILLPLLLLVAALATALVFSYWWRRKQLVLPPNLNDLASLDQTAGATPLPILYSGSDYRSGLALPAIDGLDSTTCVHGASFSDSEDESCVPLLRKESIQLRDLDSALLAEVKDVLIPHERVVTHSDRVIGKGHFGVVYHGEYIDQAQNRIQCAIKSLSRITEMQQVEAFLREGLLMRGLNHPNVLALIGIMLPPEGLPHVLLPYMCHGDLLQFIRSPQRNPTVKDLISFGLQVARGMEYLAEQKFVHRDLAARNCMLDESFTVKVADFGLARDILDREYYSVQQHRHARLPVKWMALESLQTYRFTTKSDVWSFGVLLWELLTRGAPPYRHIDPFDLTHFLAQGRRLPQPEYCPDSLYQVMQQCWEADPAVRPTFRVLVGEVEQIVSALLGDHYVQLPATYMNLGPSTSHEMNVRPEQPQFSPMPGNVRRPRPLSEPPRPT
Sequence of cMET (P08581 25-1390): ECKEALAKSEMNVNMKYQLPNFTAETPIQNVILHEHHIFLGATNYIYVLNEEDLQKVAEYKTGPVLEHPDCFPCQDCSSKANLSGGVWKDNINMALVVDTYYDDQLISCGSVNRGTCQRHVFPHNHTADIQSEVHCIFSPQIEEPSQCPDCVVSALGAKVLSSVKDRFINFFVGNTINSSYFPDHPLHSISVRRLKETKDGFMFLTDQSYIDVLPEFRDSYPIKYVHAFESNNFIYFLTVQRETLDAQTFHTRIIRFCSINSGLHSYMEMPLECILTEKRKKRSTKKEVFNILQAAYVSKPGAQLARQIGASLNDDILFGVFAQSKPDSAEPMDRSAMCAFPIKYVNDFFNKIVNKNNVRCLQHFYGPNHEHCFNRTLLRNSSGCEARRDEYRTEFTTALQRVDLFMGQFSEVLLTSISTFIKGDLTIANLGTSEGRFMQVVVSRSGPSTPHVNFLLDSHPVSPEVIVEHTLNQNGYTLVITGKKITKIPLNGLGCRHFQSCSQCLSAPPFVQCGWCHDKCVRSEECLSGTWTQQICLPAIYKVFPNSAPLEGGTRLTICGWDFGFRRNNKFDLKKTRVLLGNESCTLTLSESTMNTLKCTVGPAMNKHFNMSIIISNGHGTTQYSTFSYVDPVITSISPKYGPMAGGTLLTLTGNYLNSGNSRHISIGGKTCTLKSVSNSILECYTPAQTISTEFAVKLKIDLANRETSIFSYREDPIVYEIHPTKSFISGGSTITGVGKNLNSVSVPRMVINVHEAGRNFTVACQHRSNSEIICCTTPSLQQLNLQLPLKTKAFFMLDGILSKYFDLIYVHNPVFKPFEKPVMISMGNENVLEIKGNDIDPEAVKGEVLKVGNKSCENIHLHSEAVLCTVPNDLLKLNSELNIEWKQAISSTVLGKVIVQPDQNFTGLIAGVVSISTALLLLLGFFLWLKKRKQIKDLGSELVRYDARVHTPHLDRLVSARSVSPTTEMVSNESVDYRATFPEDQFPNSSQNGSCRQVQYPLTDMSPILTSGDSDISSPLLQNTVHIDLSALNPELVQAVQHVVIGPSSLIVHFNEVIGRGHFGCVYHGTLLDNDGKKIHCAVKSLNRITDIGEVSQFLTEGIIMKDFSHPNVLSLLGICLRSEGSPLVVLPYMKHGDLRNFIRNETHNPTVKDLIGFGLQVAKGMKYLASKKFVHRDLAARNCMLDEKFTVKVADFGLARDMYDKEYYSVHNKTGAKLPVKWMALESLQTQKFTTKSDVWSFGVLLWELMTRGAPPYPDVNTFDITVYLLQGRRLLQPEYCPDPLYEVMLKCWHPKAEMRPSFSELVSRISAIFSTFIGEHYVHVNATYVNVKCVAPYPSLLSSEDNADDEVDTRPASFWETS

Compound | IC50 (cMET) | IC50 (RON)
CC(C)n1c(=O)[nH]c2nccc(Oc3ccc(NC(=O)c4cnn(-c5cc(C6=CCOCC6)ccn5)c4C(F)(F)F)cc3F)c21 [Example 32, 1-(4-(3,6-dihydro-2H-pyran-4-yl)pyridine-2-yl)-N-(3-fluoro-4-((1-isopropyl-2-oxo-2,3-dihydro-1H-imidazo[4,5-b]pyridine-7-yl)oxy)phenyl)-5-(trifluoromethyl)-1H-pyrazole-4-carboxamide] | 500 to 5000 nM | 50 to 500 nM
CC(C)n1c(=O)[nH]c2nccc(Oc3ccc(NC(=O)c4cnn(-c5cccc(C(F)(F)F)n5)c4C(F)(F)F)cc3F)c21 [Example 22, N-(3-fluoro-4-((1-isopropyl-2-oxo-2,3-dihydro-1H-imidazo[4,5-b]pyridine-7-yl)oxy)phenyl)-5-(trifluoromethyl)-1-(6-(trifluoromethyl)pyridine-2-yl)-1H-pyrazole-4-carboxamide] | > 5000 nM | 50 to 500 nM
CCc1c(C(=O)Nc2ccc(Oc3ccnc4[nH]c(=O)n(C(C)C)c34)c(F)c2)cnn1-c1cncnc1 [Example 2, 5-ethyl-N-(3-fluoro-4-((1-isopropyl-2-oxo-2,3-dihydro-1H-imidazo[4,5-b]pyridine-7-yl)oxy)phenyl)-1-(pyrimidine-5-yl)-1H-pyrazole-4-carboxamide] | > 5000 nM | < 50 nM
Cc1cnc(-n2ncc(C(=O)Nc3ccc(Oc4ccnc5[nH]c(=O)n(C(C)C)c45)c(F)c3)c2C(F)(F)F)nc1 [Example 36, N-(3-fluoro-4-((1-isopropyl-2-oxo-2,3-dihydro-1H-imidazo[4,5-b]pyridine-7-yl)oxy)phenyl)-1-(5-methylpyrimidine-2-yl)-5-(trifluoromethyl)-1H-pyrazole-4-carboxamide] | 500 to 5000 nM | < 50 nM
CC(C)n1c(=O)[nH]c2nccc(Oc3ccc(NC(=O)c4cnn(-c5cncnc5)c4C(F)(F)F)cc3F)c21 [Example 4, N-(3-fluoro-4-((1-isopropyl-2-oxo-2,3-dihydro-1H-imidazo[4,5-b]pyridine-7-yl)oxy)phenyl)-1-(pyrimidine-5-yl)-5-(trifluoromethyl)-1H-pyrazole-4-carboxamide] | > 5000 nM | < 50 nM
CC(C)n1c(=O)[nH]c2nccc(Oc3ccc(NC(=O)c4cnn(-c5ccc(F)cn5)c4C(F)(F)F)cc3F)c21 [Example 21, N-(3-fluoro-4-((1-isopropyl-2-oxo-2,3-dihydro-1H-imidazo[4,5-b]pyridine-7-yl)oxy)phenyl)-1-(5-fluoropyridine-2-yl)-5-(trifluoromethyl)-1H-pyrazole-4-carboxamide] | > 5000 nM | < 50 nM
CC(C)n1c(=O)[nH]c2nccc(Oc3ccc(NC(=O)c4cnn(-c5cc(C(F)(F)F)ccn5)c4C(F)(F)F)cc3F)c21 [Example 17, N-(3-fluoro-4-((1-isopropyl-2-oxo-2,3-dihydro-1H-imidazo[4,5-b]pyridine-7-yl)oxy)phenyl)-5-(trifluoromethyl)-1-(4-(trifluoromethyl)pyridine-2-yl)-1H-pyrazole-4-carboxamide] | > 5000 nM | 50 to 500 nM
CC(C)n1c(=O)[nH]c2nccc(Oc3ccc(NC(=O)c4cnn(-c5ccncc5)c4C(F)(F)F)cc3F)c21 [Example 24, N-(3-fluoro-4-((1-isopropyl-2-oxo-2,3-dihydro-1H-imidazo[4,5-b]pyridine-7-yl)oxy)phenyl)-1-(pyridine-4-yl)-5-(trifluoromethyl)-1H-pyrazole-4-carboxamide] | 500 to 5000 nM | < 50 nM
CC(C)n1c(=O)[nH]c2nccc(Oc3ccc(NC(=O)c4cnn(-c5ncccn5)c4C(F)(F)F)cc3F)c21 [Example 25, N-(3-fluoro-4-((1-isopropyl-2-oxo-2,3-dihydro-1H-imidazo[4,5-b]pyridine-7-yl)oxy)phenyl)-1-(pyrimidine-2-yl)-5-(trifluoromethyl)-1H-pyrazole-4-carboxamide] | 500 to 5000 nM | < 50 nM
CC(C)n1c(=O)[nH]c2nccc(Oc3ccc(NC(=O)c4cnn(-c5ccc(Cl)cn5)c4C(F)(F)F)cc3F)c21 [Example 11, 1-(5-chloropyridine-2-yl)-N-(3-fluoro-4-((1-isopropyl-2-oxo-2,3-dihydro-1H-imidazo[4,5-b]pyridine-7-yl)oxy)phenyl)-5-(trifluoromethyl)-1H-pyrazole-4-carboxamide] | > 5000 nM | 50 to 500 nM

Further lines, results first:

IC50 (cMET) | IC50 (RON) | Compound
> 5000 nM | < 50 nM | CC(C)n1c(=O)[nH]c2nccc(Oc3ccc(NC(=O)c4cnn(-c5cc(Cl)ccn5)c4C(F)(F)F)cc3F)c21 [Example 15, 1-(4-chloropyridine-2-yl)-N-(3-fluoro-4-((1-isopropyl-2-oxo-2,3-dihydro-1H-imidazo[4,5-b]pyridine-7-yl)oxy)phenyl)-5-(trifluoromethyl)-1H-pyrazole-4-carboxamide]
> 5000 nM | < 50 nM | CC(C)n1c(=O)[nH]c2nccc(Oc3ccc(NC(=O)c4cnn(-c5ccccn5)c4C(F)(F)F)cc3F)c21 [Example 3, N-(3-fluoro-4-((1-isopropyl-2-oxo-2,3-dihydro-1H-imidazo[4,5-b]pyridine-7-yl)oxy)phenyl)-1-(pyridine-2-yl)-5-(trifluoromethyl)-1H-pyrazole-4-carboxamide]
500 to 5000 nM | < 50 nM | CC(C)n1c(=O)[nH]c2nccc(Oc3ccc(NC(=O)c4cnn(-c5ncccc5Cl)c4C(F)(F)F)cc3F)c21 [Example 10, 1-(3-chloropyridine-2-yl)-N-(3-fluoro-4-((1-isopropyl-2-oxo-2,3-dihydro-1H-imidazo[4,5-b]pyridine-7-yl)oxy)phenyl)-5-(trifluoromethyl)-1H-pyrazole-4-carboxamide]
500 to 5000 nM | < 50 nM | CC(C)n1c(=O)[nH]c2nccc(Oc3ccc(NC(=O)c4cnn(-c5ncccc5Br)c4C(F)(F)F)cc3F)c21 [Example 19, 1-(3-bromopyridine-2-yl)-N-(3-fluoro-4-((1-isopropyl-2-oxo-2,3-dihydro-1H-imidazo[4,5-b]pyridine-7-yl)oxy)phenyl)-5-(trifluoromethyl)-1H-pyrazole-4-carboxamide]
500 to 5000 nM | < 50 nM | CC(C)n1c(=O)[nH]c2nccc(Oc3ccc(NC(=O)c4cnn(-c5ncccc5F)c4C(F)(F)F)cc3F)c21 [Example 7, N-(3-fluoro-4-((1-isopropyl-2-oxo-2,3-dihydro-1H-imidazo[4,5-b]pyridine-7-yl)oxy)phenyl)-1-(3-fluoropyridine-2-yl)-5-(trifluoromethyl)-1H-pyrazole-4-carboxamide]
500 to 5000 nM | < 50 nM | CCc1cccnc1-n1ncc(C(=O)Nc2ccc(Oc3ccnc4[nH]c(=O)n(C(C)C)c34)c(F)c2)c1C(F)(F)F [Example 29, 1-(3-ethylpyridine-2-yl)-N-(3-fluoro-4-((1-isopropyl-2-oxo-2,3-dihydro-1H-imidazo[4,5-b]pyridine-7-yl)oxy)phenyl)-5-(trifluoromethyl)-1H-pyrazole-4-carboxamide]
